The values that follow come from patent US12590125B2, “Peptide inhibitors for the inhibition of HIV capsid” (THE CURATORS OF THE UNIVERSITY OF MISSOURI, priority 2019, dated 2026).

The target of one experiment is HIV-1 CA-hexamers (Human immunodeficiency virus type 1 group M subtype B, UniProt P12493). The experiment can be described thus: biochemical. The class given is binding.
Experiment [1] relates to HIV. The conditions noted are these: MT-4 cells; read-out: EC50, anti-HIV activity; cited from earlier work.
A further experiment concerns HIV-1. The conditions noted are these: PBMCs, 23 HIV-1 clinical isolates from different subtypes, cited from earlier work.
The test system of experiment [2] is HIV. The conditions noted are these: MT-2 cells; cited from earlier work.
Another experiment addresses CA-hexamers. The conditions noted are these: read-out: binding affinity of CA-hexamers with PF74 by ITC; isothermal calorimetry, Bhattacharya et al., 2014; cited from earlier work. (In ITC the heat of successive injections is recorded.)

Like-named read-outs stand apart in the source and are kept apart here. Residues, ends and D or L forms follow the SMILES beside them.

Protocol for HIV-1 CA-hexamers: During the MST experiment, a temperature gradient is induced by an infrared laser. The directed movement of molecules through the temperature gradient is detected and quantified using covalently attached fluorophore.
Fluorescent labeling of CA with Alexa Fluor 647 analog NT647 was performed according to the manufacturer's instructions (MO-L004 Monolith Protein Labeling Kit; NanoTemper Technologies GmbH, Munich, Germany). 20 μM protein was incubated overnight with 3 molar excess of dye at room temperature in a conjugation buffer provided with the labeling kit. The unreacted dye was removed by filtration through a gravity flow column provided with the kit. The elution fractions were collected in 2×MST buffer (100 mM MOPS, pH 7.0, 200 mM NaCl, and 0.2% pluronic F-127). Fluorescence intensity of each fraction was evaluated by MST (Monolith NT.115, NanoTemper Technologies GmbH, Munich, Germany), and fractions containing labelled protein were pooled. Protein concentration was determined by NANODROP (Thermo Scientific, Waltham, MA) spectrophotometer. Aliquots were stored at −80° C. until use. […] The data were analyzed using MO. Affinity software (version 2.3) (NanoTempet Technologies, CA) by fitting the data point to a quadratic equation (Equation 1) and plotting by PRISM (Version 6.0) (GraphPad Inc. La Jolla, CA).

At HIV-1 CA-hexamers, `CC(C)[C@@H]1NC(=O)CNC(=O)[C@H](CO)NC(=O)CNC(=O)[C@@H]2CCCN2C(=O)[C@H](Cc2ccccc2)NC(=O)[C@H](CC(N)=O)NC(=O)[C@H](C(C)C)NC(=O)[C@@H]2CCCN2C(=O)CNC(=O)[C@H](Cc2ccccc2)NC(=O)[C@H]([C@@H](C)O)NC(=O)[C@H](Cc2ccccc2)NC1=O` [Pep-2-cyclic] (cyclo(FGPVNFPGSGVFT)) yielded a Kd of 32 ± 3 nM. On HIV-1 CA-hexamers (Pep-2-cyclic vs PF74, MST), the “fold better CA binding affinity than PF74” value is recorded as ~7 fold.
What is called EC50 is the concentration giving half of the maximal effect. As for `CC(C)(C#Cc1ccc(-c2ccc(Cl)c3c(NS(C)(=O)=O)nn(CC(F)(F)F)c23)c([C@H](Cc2cc(F)cc(F)c2)NC(=O)Cn2nc(C(F)(F)F)c3c2C(F)(F)[C@@H]2C[C@H]32)n1)S(C)(=O)=O` [GS-6207], the EC50 in the experiment on HIV [1] was 0.1 nM; in the experiment on HIV-1 (read-out: mean EC50), 0.05 nM; in the experiment with HIV-1 (read-out: range of EC50 over clinical isolates), 0.02 to 0.16 nM.
In the case of `Cc1[nH]c2ccccc2c1CC(=O)N[C@@H](Cc1ccccc1)C(=O)N(C)c1ccccc1` [PF74], the EC50 in the experiment with HIV [2] is 570 nM. Besides, the Kd on CA-hexamers was 262 nM.
